In brackets after ≈: the same amount, converted by molar mass. Entries after “also recorded” stand apart in the source; their conditions may differ. Where two headings read alike, the source gives them in different places. Ends that are not written are not given here. Peptide text beside a SMILES is read from it.

Test [1] has as its system C. albicans. Description: Scanning electron microscopy of cell morphology. Particulars: 30 min treatment, peptide 1.6, 3.125 or 25 µM as in Figure 4 legend. Type of test: cell-based, Candida albicans. On the procedure: (§1) A. baumannii and C. albicans were grown and treated the same way as for the membrane permeability assay. Cells were then fixed with 2.5% (v/v) glutaraldehyde in phosphate buffered saline (PBS, pH 7.4). 5 μl of the above bacterial and yeast suspensions were spotted on a silicon disk coated with 0.01% Poly-L-Lysine. The filters were washed twice with PBS and gradually dehydrated with ethanol series (30, 50, 70, 80%, and three times 100% ethanol, each for minimum 30 min). The samples were dried with a critical point dryer (K850: Quorum Technologies Ltd.), followed by 12 nm gold coating and observed under a JEOL JSM-7100F/LV scanning electron microscope.

The test system of test [2] is Lambda DNA/HindIII marker. The test can be described thus: Gel retardation assay (DNA aggregation). In kind it is binding. Particulars: 100 ng DNA, 5 or 10 µM peptide in water, 30 min at room temperature, 1% agarose gel. On the procedure: Interactions of peptides with DNA was visualized with gel retardation assay ([Hsu et al., 2005]). 100 ng Lambda DNA/HindIII marker (ThermoFisher Scientific) was incubated with 0, 5 or 10 µM synthetic NCRs or NCR derivatives in water for 30 min at room temperature and then loaded into 1% agarose gel. Electrophoresis of DNA fragments separated the mobile HindIII-digested DNA fragments while the aggregated DNA remained in the loading wells.
FIGURE 6 Aggregation of DNA by NCR peptides. Lambda HindIII digested DNA was incubated without (0) or with NCR peptides at 5 or 10 μM concentration.

The subject of test [3] is A. baumannii. Description: Scanning electron microscopy of cell morphology. Type of test: cell-based, Acinetobacter baumannii. Particulars: 30 min treatment, peptide 1.6 or 3.125 µM as in Figure 3 legend. The protocol:
as §1
FIGURE 3 Viability, membrane permeability and morphology of A. baumannii cells after NCR treatment (A–L) SYTO9/PI staining observed with confocal microscope, (M–X) Cell morphology observed with SEM. (A,M) untreated control, (B,N) CaNCR13, 3.125 µM, (C,O) CaNCR63, 3.125 µM, (D,P) CaNCR63_1-20, 3.125 µM, (E,Q) CaNCR63_15-34, 3.125 µM, (F,R) MsNCR443, 3.125 µM, (G,S) MsNCR463_16-35, 1.6 µM, (H,T) MsNCR463_17-30, 3.125 µM, (I,U) PsNCR349, 1.6 µM, (J,V) PsNCR349_26-50, 3.125 µM, (K,W) PsNCR349_31-50, 3.125 µM, (L,X) PsNCR352, 1.6 µM.

The test system of test [4] is Acinetobacter baumannii (ATCC 17978). Description: microbe, parasite or virus in culture. Type of test: cell-based. Conditions: read-out: MBC, minimal bactericidal concentration against A. baumannii. In outline: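 About 10^7 log-phase bacteria were treated for 3 h in potassium-phosphate buffer (pH 7.4) with 2-fold peptide dilutions from 25 µM downward. MBC was the lowest concentration that completely eliminated viable bacteria.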

Test [5] has as its system E. coli, S. enteritidis, P. aeruginosa, L. monocytogenes, S. aureus, E. faecalis, K. pneumoniae and A. baumannii. Description: Antimicrobial activity assay, spectrum over the eight tested pathogenic bacteria. In kind it is cell-based. Conditions: 3 h treatment of ~10^7 log phase bacteria, peptides 25 to 0.8 µM; active = MBC ≤25 µM. In outline:
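Log-phase bacteria (~10^7) treated 3 h with NCR peptides in potassium-phosphate buffer pH 7.4, two-fold dilutions from 25 µM to 0.8 µM. MBC is the lowest concentration completely eliminating viable bacteria. Strains: E. faecalis ATCC 29212, S. aureus HNCMO112011, L. monocytogenes ATCC 19111, P. aeruginosa ATCC 27853, E. coli ATCC 8739, S. enterica ATCC 13076, K. pneumoniae NCTC 13440, A. baumannii ATCC 17978.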

Test [6] deals with Candida albicans W01 strain. Description: microbe, parasite or virus in culture. Type of test: cell-based. Conditions: read-out: MFC, minimal fungicidal concentration against C. albicans. From the text: The following pathogenic bacterial strains were used: The Gram-positive Enterococcus faecalis (ATCC 29212), Staphylococcus aureus (HNCMO112011), Listeria monocytogenes (ATCC 19111) and the Gram-negative Pseudomonas aeruginosa (ATCC 27853), Escherichia coli (ATCC 8739), Salmonella enterica (ATCC 13076), Klebsiella pneumoniae (NCTC 13440), Acinetobacter baumannii (ATCC 17978) obtained from the ATCC (United States) and NCTC (National Collection of Type Cultures–England). For the antifungal experiment the Candida albicans W01 strain ([Ördögh et al., 2014]) was used. Antimicrobial activities of peptides against ∼10^7 log phase bacteria were tested in Potassium-Phosphate Buffer (PPB, pH 7.4) as described by [Jenei et al. (2020)] while anti-Candida assays were done according to [Szerencsés et al. (2021)]. The two-fold dilution series of peptides ranged from 25 μM to 0.125 μM, while that of the antibiotics ampicillin (Merck) and miconazole (Duchefa Biochemie) from […] to 0.1 μM. The lowest concentration of the antimicrobial agents, which completely eliminated viable bacteria or C. albicans were considered as the minimal bactericidal concentration (MBC) and minimal fungicidal concentration (MFC).

[7] abbreviates: ~10^7 log phase bacteria, Potassium-Phosphate Buffer pH 7.4, 3 h treatment, two-fold dilution series, lowest concentration completely eliminating viable bacteria.
Where [8] appears, read: C. albicans W01, two-fold dilution series, lowest concentration completely eliminating viable C. albicans.

As to `CC[C@H](C)[C@H](NC(=O)[C@H](CCCCN)NC(=O)[C@H](CO)NC(=O)[C@H](CCCNC(=N)N)NC(=O)[C@@H]1CCCN1C(=O)[C@H](CS)NC(=O)[C@H](CCCNC(=N)N)NC(=O)[C@H](Cc1ccc(O)cc1)NC(=O)[C@H](CCCCN)NC(=O)[C@H](CCCCN)NC(=O)[C@H](CS)NC(=O)[C@H](CC(=O)O)NC(=O)[C@@H](NC(=O)[C@H](CCCNC(=N)N)NC(=O)[C@@H](NC(=O)[C@H](CCCCN)NC(=O)[C@H](CS)NC(=O)[C@@H](NC(=O)[C@H](CCSC)NC(=O)[C@@H](N)CCCCN)[C@@H](C)CC)[C@@H](C)O)C(C)C)C(=O)N[C@@H](CCCCN)C(=O)N[C@@H](CC(=O)O)C(=O)N[C@@H](CS)C(=O)N[C@H](C(=O)N[C@@H](CCCCN)C(=O)NCC(=O)N[C@@H](Cc1ccc(O)cc1)C(=O)N[C@@H](CS)C(=O)N[C@@H](CCCNC(=N)N)C(=O)N[C@@H](CS)C(=O)N[C@H](C(=O)N[C@@H](CCCNC(=N)N)C(=O)N[C@@H](CCCCN)C(=O)N[C@@H](CCCCN)C(=O)O)C(C)C)C(C)C` [CaNCR63] (H-KMICKTRVDCKKYRCPRSKIKDCVKGYCRCVRKK-OH; N-terminus assumed), the “Morphology of C. albicans cells by SEM” value in test [1] is given as “Flattening of cells; also recorded: aggregation of shrunken cells in a spider net like matrix”. The “Aggregation of HindIII-digested λ DNA (DNA retained in loading wells)” value (“Aggregation of HindIII-digested λ DNA” for short) in test [2] is listed as “DNA remained in the wells”. The “Morphology of A. baumannii cells by SEM” value in test [3] was “rough cell surface, lysis and flattening of the cells”. Moreover, the MBC in test [4] (setting [7]) is 6.25 µM (≈ 25.8 µg/mL). Moreover, the “Antibacterial spectrum over the eight tested bacterial strains” value in test [5] is “broad-spectrum activity”.

For `CC[C@H](C)[C@H](NC(=O)[C@H](CCCCN)NC(=O)[C@H](CO)NC(=O)[C@H](CCCNC(=N)N)NC(=O)[C@@H]1CCCN1C(=O)[C@H](CS)NC(=O)[C@H](CCCNC(=N)N)NC(=O)[C@H](Cc1ccc(O)cc1)NC(=O)[C@H](CCCCN)NC(=O)[C@H](CCCCN)NC(=O)[C@H](CS)NC(=O)[C@H](CC(=O)O)NC(=O)[C@@H](NC(=O)[C@H](CCCNC(=N)N)NC(=O)[C@@H](NC(=O)[C@H](CCCCN)NC(=O)[C@H](CS)NC(=O)[C@@H](NC(=O)[C@H](CCSC)NC(=O)[C@@H](N)CCCCN)[C@@H](C)CC)[C@@H](C)O)C(C)C)C(N)=O` [CaNCR63_1-20] (H-KMICKTRVDCKKYRCPRSKI-NH2; N-terminus assumed), the MFC in test [6] (W01 strain) was found to be 25 µM (≈ 61.4 µg/mL). The “Morphology of C. albicans cells by SEM” value in test [1] is recorded as “most similar to the control”. In addition, the “Aggregation of HindIII-digested λ DNA” value in test [2] is listed as “less efficient than either the full-length peptide or the C-terminal CaNCR63_15-34”. The “Morphology of A. baumannii cells by SEM” value in test [3] is “rough cell surface, lysis and flattening of the cells”. In test [4] (ATCC 17978, 3 h, pH 7.4), the MBC was 6.25 µM (≈ 15.4 µg/mL).

As for `CC(C)[C@H](NC(=O)CNC(=O)[C@H](CCCNC(=N)N)NC(=O)[C@H](CCCCN)NC(=O)[C@@H]1CCCN1C(=O)[C@H](CCCCN)NC(=O)[C@@H](N)CS)C(=O)N[C@@H](CC(N)=O)C(=O)N[C@@H](Cc1ccccc1)C(=O)N[C@@H](CCCNC(=N)N)C(=O)N[C@@H](CS)C(=O)N[C@@H](CCCNC(=N)N)C(=O)N[C@@H](CCCCN)C(=O)NCC(=O)N[C@@H](CCCCN)C(=O)N[C@@H](CS)C(=O)N[C@@H](Cc1ccccc1)C(=O)N1CCC[C@H]1C(=O)N[C@H](C(=O)N[C@@H](CCCNC(=N)N)C(N)=O)C(C)C` [MsNCR463_16-35] (H-CKPKRGVNFRCRKGKCFPVR-NH2; N-terminus assumed), the values for the MFC in test [6] (setting [8]) and in test [6] (W01 strain) were 3.1 µM (≈ 7.37 µg/mL) and 3.125 µM (≈ 7.43 µg/mL), respectively. The “Morphology of C. albicans cells by SEM” value in test [1] is “Flattening of cells”. The “Aggregation of HindIII-digested λ DNA” value in test [2] was “DNA remained in the wells”. For the same compound, in test [3], the “Morphology of A. baumannii cells by SEM” value is “budding of vesicles; also recorded: Filament-like structures”. Further, in test [4] (setting [7]), the MBC is recorded as 1.6 µM (≈ 3.81 µg/mL).

Regarding `CC[C@H](C)[C@H](NC(=O)[C@H](CCCNC(=N)N)NC(=O)[C@H](CCCNC(=N)N)NC(=O)[C@H](CS)NC(=O)[C@H](CCCNC(=N)N)NC(=O)[C@H](CCCNC(=N)N)NC(=O)[C@H](CCC(=O)O)NC(=O)[C@@H](NC(=O)[C@H](CS)NC(=O)[C@H](CC(C)C)NC(=O)[C@@H](NC(=O)[C@H](CCCCN)NC(=O)[C@H](Cc1ccc(O)cc1)NC(=O)[C@@H](NC(=O)[C@H](CCCCN)NC(=O)[C@H](CO)NC(=O)[C@H](CS)NC(=O)[C@H](CCCNC(=N)N)NC(=O)[C@H](Cc1ccccc1)NC(=O)[C@H](CCCNC(=N)N)NC(=O)[C@H](CC(C)C)NC(=O)[C@H](CS)NC(=O)[C@H](CC(=O)O)NC(=O)[C@H](CO)NC(=O)[C@H](CC(=O)O)NC(=O)[C@H](CC(N)=O)NC(=O)[C@H](CC(C)C)NC(=O)[C@H](CS)NC(=O)[C@H](CCCNC(=N)N)NC(=O)[C@H](CC(C)C)NC(=O)CNC(=O)[C@H](CO)NC(=O)[C@@H]1CCCN1)[C@@H](C)CC)C(C)C)[C@@H](C)CC)C(=O)N[C@@H](CCCCN)C(=O)N[C@@H](CCSC)C(=O)N[C@@H](Cc1c[nH]cn1)C(=O)O` [PsNCR352], the “Morphology of C. albicans cells by SEM” value in test [1] is on record as “Flattening of cells; also recorded: aggregation of shrunken cells in a spider net like matrix”. In test [2], the “Aggregation of HindIII-digested λ DNA” value is listed as “did not”. In test [3], the “Morphology of A. baumannii cells by SEM” value is “cell form was preserved”. In addition, the MBC in test [4] (setting [7]) was 6.25 µM (≈ 27.3 µg/mL). Besides, the “Antibacterial spectrum over the eight tested bacterial strains” value in test [5] is recorded as “broad-spectrum activity”.

On to “YNLKYCTNDKDCPTMMCFPPDVSKCVWKTCYCVQKHKKKLKKKKKLTFNM-OH (cysteines drawn unpaired) [PsNCR349]”, for which, in test [6] (setting [8]), the MFC is given as 3.125 µM. For the same compound, the “Morphology of C. albicans cells by SEM” value in test [1] is “Flattening of cells”. In addition, in test [2], the “Aggregation of HindIII-digested λ DNA” value is recorded as “DNA remained in the wells”. Also, in test [3], the “Morphology of A. baumannii cells by SEM” value is recorded as “Only dead cells were visible”. Also, the “Antibacterial spectrum over the eight tested bacterial strains” value in test [5] was “broad-spectrum activity”.
